Data taken from patent US6162815A, “RXR-agonist polycyclic aromatic compounds, pharmaceutical/cosmetic compositions comprising said compound and uses thereof” (Centre International de Recherches Dermatologiques Galderma, priority 1994, dated 2000).

Tests used:
RXR [1] = test: RXR transactivation test; assay type: cell-based; settings: for RXR transactivation test (%): tested compound at 10 μM, relative to control 6-[1-(3,5,5,8,8-pentamethyl-5,6,7,8-tetrahydronaphthalen-2-yl)cyclopropyl]nicotinic acid at 10^-8 M; for AC50: read-out: RXR transactivation AC 50
Description: We further tested compounds according to the claimed invention to ascertain their activity in assays that identify molecules as RXR-agonists. […] These references are incorporated by reference in their entirety herein.
The percentage values in the Table correspond to the percentage of activities of the tested compound at a concentration of 10 μM. This is relative to a control compound, 6-[1-(3,5,5,8,8-pentamethyl-5,6,7,8-tetrahydronaphthalen-2-yl)cyclopropyl]nicotinic acid, at a concentration of 10^-8 M.

RXR [2] = test: RXR binding

Row | Ki (RXR [2]) [µM] | Compound | RXR transactivation test (%) (RXR [1]) | AC50 (RXR [1]) [µM]
1 | – | CC1(C)CCC(C)(C)c2cc(Oc3ccc(C(=O)O)cc3)ccc21 [Example 1, 4-(5,6,7,8-tetrahydro-5,5,8,8-tetramethyl-2-naphthyloxy)benzoic acid] | 33 | –
2 | – | CC1(C)CCC(C)(C)c2cc([S+]([O-])c3ccc(C(=O)O)cc3)ccc21 (centres unmarked) [Example 3, 4-(5,6,7,8-tetrahydro-5,5,8,8-tetramethyl-2-naphthylsulfinyl)benzoic acid] | 25 | –
3 | – | CC1(C)CCC(C)(C)c2cc(Nc3ccc(C(=O)O)cc3)ccc21 [Example 5, 4-(5,6,7,8-tetrahydro-5,5,8,8-tetramethyl-2-naphthylamino)benzoic acid] | 21 | –
4 | – | CC1(C)CCC(C)(C)c2cc(Sc3ccc(C(=O)O)s3)ccc21 [Example 6, 5-(5,6,7,8-tetrahydro-5,5,8,8-tetramethyl-2-naphthylthio)-2-thiophenecarboxylic acid] | 39 | –
5 | – | Cc1cc2c(cc1Oc1ccc(C(=O)O)cc1)C(C)(C)CCC2(C)C [Example 7, 4-(3,5,5,8,8-pentamethyl-5,6,7,8-tetrahydro-2-naphthyloxy)benzoic acid] | 48 | 0.355
6 | 3.74 | Cc1cc2c(cc1Sc1ccc(C(=O)O)cc1)C(C)(C)CCC2(C)C [Example 8, 4-(3,5,5,8,8-pentamethyl-5,6,7,8-tetrahydro-2-naphthylthio)benzoic acid] | 118 | 0.3
7 | 2.82 | CCc1cc2c(cc1Oc1ccc(C(=O)O)cc1)C(C)(C)CCC2(C)C [Example 9, 4-(3-ethyl-5,5,8,8-tetramethyl-5,6,7,8-tetrahydro-2-naphthyloxy)benzoic acid] | 108 | 0.279
8 | 2.48 | CC(C)c1cc2c(cc1Oc1ccc(C(=O)O)cc1)C(C)(C)CCC2(C)C [Example 10, 4-(3-isopropyl-5,5,8,8-tetramethyl-5,6,7,8-tetrahydro-2-naphthyloxy)benzoic acid] | 81 | 0.495
9 | 1.13 | CC1(C)CCC(C)(C)c2cc(Oc3ccc(C(=O)O)cc3)c(Br)cc21 [Example 13, 4-(3-bromo-5,6,7,8-tetrahydro-5,5,8,8-tetramethyl-2-naphthyloxy)benzoic acid] | 57 | –
10 | – | CCc1cc2c(cc1Oc1ccc(C(=O)O)cc1C)C(C)(C)CCC2(C)C [Example 16, 3-methyl-4-(3-ethyl-5,6,7,8-tetrahydro-5,5,8,8-tetramethyl-2-naphthyloxy)benzoic acid] | 38 | –
11 | 0.538 | Cc1cc2c(cc1Sc1ccc(C(=O)O)cn1)C(C)(C)CCC2(C)C [Example 17, 6-(3,5,5,8,8-pentamethyl-5,6,7,8-tetrahydro-2-naphthylthio)nicotinic acid] | 102 | 0.048
12 | – | Cc1cc2c(cc1Sc1ccc(C(=O)O)c(Cl)c1)C(C)(C)CCC2(C)C [Example 19, 2-chloro-4-(3,5,5,8,8-pentamethyl-5,6,7,8-tetrahydro-2-naphthylthio)benzoic acid] | 58 | 0.656
13 | 3.95 | CCc1cc2c(cc1Sc1ccc(C(=O)O)cc1)C(C)(C)CCC2(C)C [Example 20, 4-(3-ethyl-5,6,7,8-tetrahydro-5,5,8,8-tetramethyl-2-naphthylthio)benzoic acid] | 41 | –
14 | – | Cc1cc2c(cc1Sc1ccc(CO)cc1)C(C)(C)CCC2(C)C [Example 23, 4-(3,5,5,8,8-pentamethyl-5,6,7,8-tetrahydro-2-naphthylthio)benzenemethanol] | 3 | –
15 | – | Cc1cc2c(cc1Sc1ccc(C=O)cc1)C(C)(C)CCC2(C)C [Example 24, 4-(3,5,5,8,8-pentamethyl-5,6,7,8-tetrahydro-2-naphthylthio)benzaldehyde] | 17 | –
16 | – | CCNC(=O)c1ccc(Sc2cc3c(cc2C)C(C)(C)CCC3(C)C)cc1 [Example 25, N-ethyl-4-(3,5,5,8,8-pentamethyl-5,6,7,8-tetrahydro-2-naphthylthio)benzamide] | 15 | –
17 | – | Cc1cc2c(cc1Sc1ccc(C(=O)Nc3ccc(O)cc3)cc1)C(C)(C)CCC2(C)C [Example 26, N-4-hydroxyphenyl-4-(3,5,5,8,8-pentamethyl-5,6,7,8-tetrahydro-2-naphthylthio)benzamide] | 14 | –
